Assay results as given in patent publication US20250186467A1, “METHODS OF TREATING MEDICAL CONDITIONS USING STAMPIDINE OR A RELATED COMPOUND” (ROME Therapeutics, Inc., priority 2022, published 2025).

Legend:
Type in all cases: cell-based
PBMCs = experiment: Decitabine-stimulated human PBMC assay, cell viability; conditions: PBMCs with 10 μM decitabine, 5 days
Description: After 5 days, the plate was spun down at 100×G for 5 minutes. Supernatants (100 μL) was collected for interferon β (IFN-β) analysis using the MSD assay noted above, and any residual supernatant was stored at −80° C.

THP1-Dual KO-TREX1 cells = experiment: CellTiter-Glo cell viability in THP1 TREX1 KO cells; conditions: highest dose, with 1 μM 5-aza-2′-deoxycytidine, five days
Description: THP1 Dual TREX1 KO cells were purchased from Invivogen. The THP1-Dual™ KO-TREX1 cells were cultured in RPMI 1640, 10% heat-inactivated fetal bovine serum, 25 mM HEPES, 10 μg/mL Blasticidin, and 100 μg/mL Zeocin. THP1-Dual™ KO-TREX1 cells were treated with a dose titration of test compound in the presence of 1 μM 5-aza-2′-deoxycytidine (Sigma, cat #189825). Type 1 Interferon and cell viability were assessed after five days of treatment.
Stock solution of test compound was prepared in DMSO followed by a three-fold dilution in DMSO. Additional 50× dilution was prepared in cell culture media for each dilution. 10 μL of diluted test compound was then added to a 384-well plate.
THP1-Dual™ KO-TREX1 cells were treated with 1 μM 5-aza-2′-deoxycytidine. THP1-Dual™ KO-TREX1 cells (50 μL) were added to each well of the 384-well plate containing test compound titration at 10,000 cells/well. Cells were incubated at 37° C., 5% CO2 in a humidified incubator for five days. […] Luminescence was detected on a plate reader according to manufacturer's instructions. […]
The remaining cells were assessed for cell viability by adding 30 μl of CellTiter-Glo (Promega, 09683) solution to each well, and placed on a shaker for 10 minutes at room temperature. Luminescence was detected on a plate reader, according to manufacturer's instructions. […]

IFN-β = experiment: Decitabine-stimulated human PBMC assay, IFN-β; conditions: PBMCs with anti-CD3/anti-CD28 and 10 μM decitabine, 5 days
Description: EasySep buffer (32 mL, Stem Cell, cat. #20144) was used to dilute 8 mL of LRSC buffy coat (from fresh Leukopak) with gentle mixing. The diluted buffy coat (20 mL) was transferred into each of two SepMate 50 tubes, and the tubes were filled with 15 mL of Lyphoprep (Stem Cell, ct. #07851) density gradient. The SepMate tubes were then centrifuged at 1200G for 10 minutes at room temperature with the brake on. The top layer of supernatant was collected in SepMate tubes by quickly pouring it into a new 50 mL conical tube. The PBMCs were washed with EasySep buffer×2 by centrifuging at 300G for 5 minutes. The cells were resuspended in 30 mL of EasySep and centrifuged at 100G for 5 minutes with the brake off, and the platelets were removed. The cells were then resuspended in 6 mL of 1× RBC lysis buffer (InvitroGen) and incubated at 37° C. for 5 minutes. Then, 25 mL of EasySep buffer was mixed into the tube and it was centrifuged at 300G for 5 minutes. The cells were resuspended in 10 mL of EasySep buffer and the cells were then counted with Cellometer (AO/PI). The PBMCs were resuspended in RPMI1640 (ThermoFisher)+10% FBS (HyClone)+p/s at 3×10^6/mL. The PBMCs (100 μL, 300 k PBMCs) were then seeded in a 96-well flat bottom microplate (Corning) that had been precoated with 100 μL of anti-CD3 antibody (10 μg/mL in PBS, Biolegend) or PBS at 4° C., one day before the assay was commenced. […]

SMILES: COC(=O)[C@H](C)N[P@](=O)(OC[C@@H]1C=C[C@H](n2cc(C)c(=O)[nH]c2=O)O1)Oc1ccc(Br)cc1 [Stampidine, methyl ((S)-(4-bromophenoxy)(((2S,5R)-5-(5-methyl-2,4-dioxo-3,4-dihydropyrimidin-1(2H)-yl)-2,5-dihydrofuran-2-yl)methoxy)phosphoryl)-L-alaninate]
- cellular toxicity (PBMCs): without any cellular toxicity
- reduction in cell viability (THP1-Dual KO-TREX1 cells): ~15%
- inhibition of IFN-β (IFN-β): showed inhibition of IFN-β
